The structures appear in SMILES notation. Counter-ions that a name gives are not always drawn.

The subject of the first test is Acinetobacter baumannii ATCC17961. Nature of the test: Antimicrobial susceptibility testing: 90% growth inhibitory concentration (IC90) determination in Iso-Sensitest broth, OD600 growth. It is filed as cell-based. As to conditions: Acinetobacter baumannii, ATCC17961, 16 h, read-out: A. baumannii ATCC 17961 IC90 (uM), strain ATCC 17961, OD600 growth over 16 h. An outline of the steps: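 Each strain, at about 5×10^(5) CFU/ml, was incubated with twofold dilutions of compound at 35±2° C for 16 h, and IC90 was calculated from kinetic optical density measured at 600 nm during logarithmic growth.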
In the case of `CCc1cc(Nc2nccn3c(-c4cn(CCN5CCOCC5)nc4C(F)(F)F)cnc23)ccc1C(=O)NCCOCCN` [Example 317, N-[2-(2-aminoethoxy)ethyl]-2-ethyl-4-[[3-[1-(2-morpholin-4-ylethyl)-3-(trifluoromethyl)pyrazol-4-yl]imidazo[1,2-a]pyrazin-8-yl]amino]benzamide formate], the concentration for an effect of 90% (IC90) stood at 1.88 µM.
Same read-out and setting: the same measure for `CCc1cc(Nc2nccn3c(-c4cn(CC(N)=O)nc4C(F)(F)F)cnc23)ccc1C(=O)NCCOCCN` [Example 316, N-[2-(2-aminoethoxy)ethyl]-4-[[3-[1-(2-amino-2-oxoethyl)-3-(trifluoromethyl)pyrazol-4-yl]imidazo[1,2-a]pyrazin-8-yl]amino]-2-ethylbenzamide formate]: 1.52 µM; for `C[C@@H](NC(=O)c1ccc(Nc2nccn3c(-c4cn(CC#N)nc4C(F)(F)F)cnc23)cc1Cl)C(=O)NC1CC(N)C1` (stereo partly drawn) [Example 683, N-[(1R)-2-[(3-aminocyclobutyl)amino]-1-methyl-2-oxo-ethyl]-2-chloro-4-[[3-[1-(cyanomethyl)-3-(trifluoromethyl)pyrazol-4-yl]imidazo[1,2-a]pyrazin-8-yl]amino]benzamide formate]: 0.336 µM.
In the case of `C[C@H](NC(=O)c1ccc(Nc2nccn3c(-c4c[nH]nc4C(F)(F)F)cnc23)cc1Cl)C(=O)N1CCC(N)CC1` [Example 126, N-[(2S)-1-(4-aminopiperidin-1-yl)-1-oxopropan-2-yl]-2-chloro-4-[[3-[3-(trifluoromethyl)-1H-pyrazol-4-yl]imidazo[1,2-a]pyrazin-8-yl]amino]benzamide formate], the IC90 is 4.15 µM.
For `CCc1cc(Nc2nccn3c(-c4cn(CC#N)nc4C(F)(F)F)cnc23)ccc1C(=O)NOCCN` [Example 228, N-(2-aminoethoxy)-4-[[3-[1-(cyanomethyl)-3-(trifluoromethyl)pyrazol-4-yl]imidazo[1,2-a]pyrazin-8-yl]amino]-2-ethylbenzamide formate], the 90% effect concentration (IC90) is 0.409 µM.
On the same count and under the same terms, next, `CCc1cc(Nc2nccn3c(-c4cn(CC(F)F)nc4C(F)(F)F)cnc23)ccc1C(=O)NCCNC(=O)CN` [Example 611, N-(2-(2-aminoacetamido)ethyl)-4-((3-(1-(2,2-difluoroethyl)-3-(trifluoromethyl)-1H-pyrazol-4-yl)imidazo[1,2-a]pyrazin-8-yl)amino)-2-ethylbenzamide formate]: 0.11 µM; `NC1CCN(C(=O)N2CCN(C(=O)c3ccc(Nc4nccn5c(-c6c[nH]nc6C(F)(F)F)cnc45)cc3Cl)CC2)CC1` [Example 285, [4-(4-aminopiperidine-1-carbonyl)piperazin-1-yl]-[2-chloro-4-[[3-[3-(trifluoromethyl)-1H-pyrazol-4-yl]imidazo[1,2-a]pyrazin-8-yl]amino]phenyl] methanone formate]: 0.185 µM.

Staying with this test, now noted: Acinetobacter baumannii, ATCC17961, 16 h, strain ATCC 17961, OD600 growth over 16 h, read-out: A. baumannii ATCC 17961 IC90.
On to `CCc1cc(Nc2nccn3c(-c4cn(CCF)nc4C(F)(F)F)cnc23)ccc1C(=O)N[C@@H](C)CN` [Example 65, N-[(2S)-1-aminopropan-2-yl]-2-ethyl-4-[[3-[1-(2-fluoroethyl)-3-(trifluoromethyl)pyrazol-4-yl]imidazo[1,2-a]pyrazin-8-yl]amino]benzamide], for which the concentration for an effect of 90% (IC90) came out at 0.339 µM.
Regarding `CCc1cc(Nc2nccn3c(-c4c[nH]nc4C(F)F)cnc23)ccc1C(=O)NCCOCCN` [Example 430, N-[2-(2-aminoethoxy)ethyl]-4-[[3-[3-(difluoromethyl)-1H-pyrazol-4-yl]imidazo[1,2-a]pyrazin-8-yl]amino]-2-ethylbenzamide], the 90% effect concentration (IC90) is 2.14 µM.
As to `CCc1cc(Nc2nccn3c(-c4cn(CCF)nc4C(F)F)cnc23)ccc1C(=O)N1CCN(C(=O)C2(O)CCNCC2)CC1` [Example 791, (4-(4-((3-(3-(difluoromethyl)-1-(2-fluoroethyl)-1H-pyrazol-4-yl)imidazo[1,2-a]pyrazin-8-yl)amino)-2-ethylbenzoyl)piperazin-1-yl)(4-hydroxypiperidin-4-yl)methanone], the concentration for an effect of 90% (IC90) came out at 1.85 µM.
On to `C#CCn1cc(-c2cnc3c(Nc4cc(C)c(C(=O)N5CCNCC5)c(F)c4)nccn23)c(C(F)(F)F)n1` [Example 67, [2-fluoro-6-methyl-4-[[3-[1-prop-2-ynyl-3-(trifluoromethyl)pyrazol-4-yl]imidazo[1,2-a]pyrazin-8-yl]amino]phenyl]-piperazin-1-ylmethanone], for which the concentration for an effect of 90% (IC90) worked out at 0.413 µM.
In the case of `CCc1cc(Nc2nccn3c(-c4cn(CC#N)nc4C(F)(F)F)cnc23)ccc1C(=O)NCCNC(=O)[C@H]1C[C@H](N)C1` [Example 487, N-(2-((1r,3r)-3-aminocyclobutane-1-carboxamido)ethyl)-4-((3-(1-(cyanomethyl)-3-(trifluoromethyl)-1H-pyrazol-4-yl)imidazo[1,2-a]pyrazin-8-yl)amino)-2-ethylbenzamide formate], the IC90 was 0.171 µM.
On the same count and under the same terms, next, `CCc1cc(Nc2nccn3c(-c4cn(CC#N)nc4C(F)(F)F)cnc23)ccc1C(=O)NCCNC(=O)[C@H]1CC[C@@H](N)C1` [Example 496, N-(2-((1S,3R)-3-aminocyclopentane-1-carboxamido)ethyl)-4-((3-(1-(cyanomethyl)-3-(trifluoromethyl)-1H-pyrazol-4-yl)imidazo[1,2-a]pyrazin-8-yl)amino)-2-ethylbenzamide formate]: 0.173 µM; `CCc1cc(Nc2nccn3c(-c4c[nH]nc4C(F)(F)F)cnc23)ccc1C(=O)NCCCNC(=O)[C@H]1C[C@H](N)C1` [Example 532, N-(3-((1r,3r)-3-aminocyclobutane-1-carboxamido)propyl)-2-ethyl-4-((3-(3-(trifluoromethyl)-1H-pyrazol-4-yl)imidazo [1,2-a]pyrazin-8-yl)amino)benzamide formate]: 0.245 µM.
`O=C(CNCCNC(=O)c1ccc(Nc2nccn3c(-c4cn(CC(F)F)nc4C(F)(F)F)cnc23)cc1Cl)N[C@@H]1CCNC1` [Example 823, (R)-2-chloro-4-(3-(1-(2,2-difluoroethyl)-3-(trifluoromethyl)-1H-pyrazol-4-yl)imidazo[1,2-a]pyrazin-8-yl)amino)-N-(2-((2-oxo-2-(pyrrolidin-3-ylamino)ethyl)amino)ethyl) benzamide formate]: the concentration for an effect of 90% (IC90) is 0.18 µM.
The same measure, in the same setting: next, `NCCNC(=O)CNC(=O)c1ccc(Nc2nccn3c(-c4c[nH]nc4C(F)(F)F)cnc23)cc1Cl` [Example 166, N-[2-(2-aminoethylamino)-2-oxoethyl]-2-chloro-4-[[3-[3-(trifluoromethyl)-1H-pyrazol-4-yl]imidazo[1,2-a]pyrazin-8-yl]amino]benzamide]: 4.48 µM; `Cc1cc(Nc2nccn3c(-c4c[nH]nc4C(F)(F)F)cnc23)ccc1C(=O)N1CCN(C(=O)[C@@H]2CNCC[C@H]2O)CC1` (racemic) [Example 467, [2-methyl-4-[[3-[3-(trifluoromethyl)-1H-pyrazol-4-yl]imidazo[1,2-a]pyrazin-8-yl]amino]phenyl]-[4-[rac-(3R,4R)-4-hydroxypiperidine-3-carbonyl]piperazin-1-yl]methanone hydrochloride]: 1.42 µM.
In the case of `O=C(N[C@@H]1CCNC1)c1ccc(Nc2nccn3c(-c4c[nH]nc4C(F)(F)F)cnc23)cc1Cl` [Example 379, 2-chloro-N-[(3R)-pyrrolidin-3-yl]-4-[[3-[3-(trifluoromethyl)-1H-pyrazol-4-yl]imidazo[1,2-a]pyrazin-8-yl]amino]benzamide], the IC90 is 0.576 µM.
With `CCc1cc(Nc2nccn3c(-c4cn(Cc5csc(C)n5)nc4C(F)(F)F)cnc23)ccc1C(=O)NCCCNCCCCNCCCN` [Example 82, N-[3-[4-(3-aminopropylamino)butylamino]propyl]-2-ethyl-4-[[3-[1-[(2-methyl-1,3-thiazol-4-yl)methyl]-3-(trifluoromethyl)pyrazol-4-yl]imidazo[1,2-a]pyrazin-8 yl]amino]benzamide hydrochloride], the IC90 came to 1.15 µM.
For `CCc1cc(Nc2nccn3c(-c4cn(CC#N)nc4C(F)(F)F)cnc23)ccc1C(=O)NCCNC(=O)[C@@H]1CCCN1` [Example 3, (2S)—N-[2-[[4-[[3-[1-(cyanomethyl)-3-(trifluoromethyl)pyrazol-4-yl]imidazo[1,2-a]pyrazin-8-yl]amino]-2-ethylbenzoyl]amino]ethyl]pyrrolidine-2-carboxamide], the IC90 worked out at 0.16 µM.
As for `CCc1cc(Nc2nccn3c(-c4c[nH]nc4C(F)(F)F)cnc23)ccc1C(=O)NCCC1(N)CC1` [Example 263, N-[2-(1-aminocyclopropyl)ethyl]-2-ethyl-4-[[3-[3-(trifluoromethyl)-1H-pyrazol-4-yl]imidazo[1,2-a]pyrazin-8-yl]amino]benzamide], the IC90 stood at 2.43 µM.
Regarding `N#CCn1cc(-c2cnc3c(Nc4ccc(C(=O)N5CCN(C(=O)[C@@H]6CC[C@H](N)C6)CC5)c(Cl)c4)nccn23)c(C(F)(F)F)n1` [Example 194, 2-[4-[8-[4-[4-[(1R,3S)-3-aminocyclopentanecarbonyl]piperazine-1-carbonyl]-3-chloroanilino]imidazo[1,2-a]pyrazin-3-yl]-3-(trifluoromethyl)pyrazol-1-yl]acetonitrile formate], the IC90 is 0.274 µM.
`CCc1cc(Nc2nccn3c(-c4c[nH]nc4C(F)(F)F)cnc23)ccc1C(=O)NCCCNC(=O)[C@@H]1CCCN1` [Example 634, (S)-N-(3-(2-ethyl-4-((3-(3-(trifluoromethyl)-1H-pyrazol-4-yl)imidazo[1,2-a]pyrazin-8-yl)amino)benzamido)propyl) pyrrolidine-2-carboxamide]: the IC90 came out at 0.218 µM.

Staying with this test, now noted: strain ATCC 17961, OD600 growth over 16 h, read-out: A. baumannii ATCC 17961 IC90.
Take `N[C@@H]1CC[C@H](NC(=O)N2CCN(C(=O)c3ccc(Nc4nccn5c(-c6c[nH]nc6C(F)(F)F)cnc45)cc3Cl)CC2)C1` [Example 233, N-[(1S,3R)-3-aminocyclopentyl]-4-[2-chloro-4-[[3-[3-(trifluoromethyl)-1H-pyrazol-4-yl]imidazo[1,2-a]pyrazin-8-yl]amino]benzoyl] piperazine-1-carboxamide formate]: the 90% effect concentration (IC90) came to 0.169 µM.

The values are drawn from patent US20230203043A1, “NOVEL IMIDAZOPYRAZINE DERIVATIVES” (Hoffmann-La Roche Inc., priority 2020, published 2023).
